Columns and labels:
[1] = biological target: T1, Endothelin receptor type B (Homo sapiens, UniProt P24530); assay: Inhibition of human endothelin B (ETB) receptor expressed in CHO cells; format: cell-based
T1 sequence (P24530 whole entry): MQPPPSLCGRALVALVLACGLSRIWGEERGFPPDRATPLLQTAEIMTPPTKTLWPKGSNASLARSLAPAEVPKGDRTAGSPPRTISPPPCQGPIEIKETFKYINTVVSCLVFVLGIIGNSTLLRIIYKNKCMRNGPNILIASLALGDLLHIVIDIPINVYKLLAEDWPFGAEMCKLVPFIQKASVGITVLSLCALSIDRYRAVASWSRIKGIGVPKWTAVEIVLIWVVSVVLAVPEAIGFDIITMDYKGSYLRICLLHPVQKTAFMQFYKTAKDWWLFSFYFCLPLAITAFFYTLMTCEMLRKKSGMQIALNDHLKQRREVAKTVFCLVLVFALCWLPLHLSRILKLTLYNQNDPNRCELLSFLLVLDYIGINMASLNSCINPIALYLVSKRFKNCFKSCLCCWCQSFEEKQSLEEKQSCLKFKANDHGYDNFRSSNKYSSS

Endothelin-1 receptor = biological target: T2, Endothelin-1 receptor (Homo sapiens, UniProt P25101); assay: Inhibition of human endothelin A (ETA) receptor expressed in CHO cells; format: cell-based
T2 sequence (P25101 whole entry): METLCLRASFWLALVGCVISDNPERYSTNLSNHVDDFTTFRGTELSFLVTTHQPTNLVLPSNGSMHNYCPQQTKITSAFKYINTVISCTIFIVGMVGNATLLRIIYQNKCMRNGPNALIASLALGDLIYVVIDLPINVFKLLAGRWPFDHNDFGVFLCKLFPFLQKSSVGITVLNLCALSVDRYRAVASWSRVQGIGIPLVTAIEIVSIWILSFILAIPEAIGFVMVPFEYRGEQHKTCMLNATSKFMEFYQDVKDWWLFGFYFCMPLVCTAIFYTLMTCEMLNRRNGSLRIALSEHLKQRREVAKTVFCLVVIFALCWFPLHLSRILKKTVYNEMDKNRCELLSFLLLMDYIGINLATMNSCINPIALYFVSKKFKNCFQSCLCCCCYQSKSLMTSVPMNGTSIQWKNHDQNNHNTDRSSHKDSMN

SMILES	IC50 [1]	IC50 (Endothelin-1 receptor)
CCCc1cc(Cn2c(CC)nc3c(C)cc(C)nc32)ccc1OC(C(=O)NS(=O)(=O)c1ccc(CC(C)C)s1)c1ccc2c(c1)OCO2 (centres undefined)	90 nM	75 nM
CCCc1cc(Cn2c(CC)nc3c(C)cc(C)nc32)cc(CCC)c1OC(C(=O)O)c1ccc2c(c1)OCO2 (centres undefined)	230 nM	38 nM
CCCc1cc(Cn2c(CC)nc3c(C)cc(C)nc32)ccc1OC(C(=O)O)c1ccccc1 (centres undefined)	47000 nM	11000 nM
CCCc1cc(Cn2c(CC)nc3c(C)cc(C)nc32)cc(CCC)c1OC(C(=O)O)c1cc(Br)c(OC)c(OC)c1Br (centres undefined)	31000 nM	11000 nM
CCCc1cc(Cn2c(CC)nc3c(C)cc(C)nc32)ccc1OC(C(=O)NS(=O)(=O)c1ccc(C(C)C)cc1)c1ccc2c(c1)OCO2 (centres undefined)	60 nM	24 nM
CCCc1cc(Cn2c(CC)nc3c(C)cc(C)nc32)ccc1OC(C(=O)O)c1ccc2c(c1)OCO2 (centres undefined)	1600 nM	840 nM

Continued, values first:

IC50 [1]	IC50 (Endothelin-1 receptor)	SMILES
540 nM	820 nM	CCCc1cc(Cn2c(CC)nc3c(C)cc(C)nc32)cc(CCC)c1OC(C(=O)NS(=O)(=O)c1cccs1)c1ccc2c(c1)OCO2 (centres undefined)
1200 nM	500 nM	CCCc1cc(Cn2c(CC)nc3c(C)cc(C)nc32)cc(CCC)c1OC(C(=O)NS(C)(=O)=O)c1ccc2c(c1)OCO2 (centres undefined)
1300 nM	330 nM	CCCc1cc(Cn2c(CC)nc3c(C)cc(C)nc32)cc(CCC)c1OC(C(=O)NS(=O)(=O)c1ccc(C(C)C)cc1)c1ccc2c(c1)OCO2 (centres undefined)
420 nM	600 nM	CCCc1cc(Cn2c(CC)nc3c(C)cc(C)nc32)cc(CCC)c1OC(C(=O)NS(=O)(=O)c1ccc(CC(C)C)s1)c1ccc2c(c1)OCO2 (centres undefined)
1900 nM	700 nM	CCCc1cc(Cn2c(CC)nc3c(C)cc(C)nc32)cc(CCC)c1OC(C(=O)NS(=O)(=O)C(C)C)c1ccc2c(c1)OCO2 (centres undefined)
800 nM	1600 nM	CCCc1cc(Cn2c(CC)nc3c(C)cc(C)nc32)cc(CCC)c1OC(C(=O)NS(=O)(=O)c1ccccc1)c1ccc2c(c1)OCO2 (centres undefined)

Source: ChEMBL document CHEMBL1128156, “Potent dual antagonists of endothelin and angiotensin II receptors derived from -phenoxyphenylacetic acids (Part III)” (Bioorg Med Chem Lett, 1995)
